Several values for one entry are separate records, joined by “and”; a condition that tells them apart may be missing. Identical values can stand only once. Numbers after ± are expanded uncertainties.
Conditions: Liquid, Falling or rolling sphere viscometry

Which results are given for `CCCCCCC(=O)OCC(COCC(COC(=O)CCCCCC)(COC(=O)CCCCCC)COC(=O)CCCCCC)(COC(=O)CCCCCC)COC(=O)CCCCCC` [dipentaerythritol hexaheptanoate]?
viscosity (283.15 K, 101.33 kPa): 260.7 ± 18 mPa·s and 259.1 ± 18 mPa·s; viscosity (288.15 K, 101.33 kPa): 191.1 ± 12 mPa·s and 190 ± 12 mPa·s; viscosity (293.15 K, 101.33 kPa): 143.1 ± 8.2 mPa·s and 142.2 ± 8.1 mPa·s; viscosity (298.15 K, 101.33 kPa): 109.2 ± 5.8 mPa·s and 108.5 ± 5.7 mPa·s; viscosity (303.15 K, 100 kPa): 86.3 ± 4.3 mPa·s; viscosity (303.15 K, 101.33 kPa): 84.89 ± 4.2 mPa·s and 84.39 ± 4.2 mPa·s; viscosity (303.15 K, 1000 kPa): 87.7 ± 4.4 mPa·s; viscosity (303.15 K, 5000 kPa): 93.9 ± 4.8 mPa·s; viscosity (303.15 K, 10000 kPa): 102 ± 5 mPa·s; viscosity (303.15 K, 20000 kPa): 121 ± 7 mPa·s; viscosity (303.15 K, 30000 kPa): 142 ± 8 mPa·s; viscosity (303.15 K, 40000 kPa): 167 ± 10 mPa·s; viscosity (303.15 K, 50000 kPa): 194 ± 12 mPa·s; viscosity (303.15 K, 60000 kPa): 226 ± 15 mPa·s; viscosity (308.15 K, 101.33 kPa): 67.04 ± 3.2 mPa·s and 66.67 ± 3.2 mPa·s; viscosity (313.15 K, 100 kPa): 55.8 ± 2.7 mPa·s; viscosity (313.15 K, 101.33 kPa): 53.73 ± 2.5 mPa·s and 53.45 ± 2.5 mPa·s; viscosity (313.15 K, 1000 kPa): 56.6 ± 2.7 mPa·s; viscosity (313.15 K, 5000 kPa): 60.3 ± 2.9 mPa·s; viscosity (313.15 K, 10000 kPa): 65.3 ± 3.1 mPa·s; viscosity (313.15 K, 20000 kPa): 76.3 ± 3.7 mPa·s; viscosity (313.15 K, 30000 kPa): 88.9 ± 4.5 mPa·s; viscosity (313.15 K, 40000 kPa): 103 ± 5 mPa·s; viscosity (313.15 K, 50000 kPa): 119 ± 6 mPa·s; viscosity (313.15 K, 60000 kPa): 138 ± 8 mPa·s; viscosity (318.15 K, 101.33 kPa): 43.66 ± 2.1 mPa·s and 43.45 ± 2.1 mPa·s; viscosity (323.15 K, 101.33 kPa): 35.93 ± 1.7 mPa·s and 35.77 ± 1.7 mPa·s; viscosity (328.15 K, 101.33 kPa): 29.91 ± 1.4 mPa·s and 29.79 ± 1.4 mPa·s; viscosity (333.15 K, 100 kPa): 25.5 ± 1.2 mPa·s; viscosity (333.15 K, 101.33 kPa): 25.18 ± 1.2 mPa·s and 25.07 ± 1.2 mPa·s; viscosity (333.15 K, 1000 kPa): 25.9 ± 1.3 mPa·s; viscosity (333.15 K, 5000 kPa): 27.5 ± 1.3 mPa·s; viscosity (333.15 K, 10000 kPa): 29.6 ± 1.4 mPa·s; viscosity (333.15 K, 20000 kPa): 34.3 ± 1.6 mPa·s; viscosity (333.15 K, 30000 kPa): 39.5 ± 1.9 mPa·s; viscosity (333.15 K, 40000 kPa): 45.3 ± 2.2 mPa·s; viscosity (333.15 K, 50000 kPa): 51.7 ± 2.4 mPa·s; viscosity (333.15 K, 60000 kPa): 58.8 ± 2.8 mPa·s; viscosity (338.15 K, 101.33 kPa): 21.39 ± 1 mPa·s and 21.31 ± 1 mPa·s; viscosity (343.15 K, 101.33 kPa): 18.32 ± 0.87 mPa·s and 18.27 ± 0.87 mPa·s; viscosity (348.15 K, 101.33 kPa): 15.82 ± 0.75 mPa·s and 15.79 ± 0.75 mPa·s; viscosity (353.15 K, 100 kPa): 13.8 ± 0.7 mPa·s; viscosity (353.15 K, 101.33 kPa): 13.77 ± 0.66 mPa·s and 13.75 ± 0.66 mPa·s; viscosity (353.15 K, 1000 kPa): 14 ± 0.7 mPa·s; viscosity (353.15 K, 5000 kPa): 14.8 ± 0.7 mPa·s; viscosity (353.15 K, 10000 kPa): 15.9 ± 0.8 mPa·s; viscosity (353.15 K, 20000 kPa): 18.2 ± 0.9 mPa·s; viscosity (353.15 K, 30000 kPa): 20.8 ± 1 mPa·s; viscosity (353.15 K, 40000 kPa): 23.6 ± 1.1 mPa·s; viscosity (353.15 K, 50000 kPa): 26.6 ± 1.3 mPa·s; viscosity (353.15 K, 60000 kPa): 30 ± 1.4 mPa·s; viscosity (358.15 K, 101.33 kPa): 12.06 ± 0.58 mPa·s; viscosity (363.15 K, 101.33 kPa): 10.64 ± 0.51 mPa·s; viscosity (368.15 K, 101.33 kPa): 9.44 ± 0.45 mPa·s and 9.45 ± 0.45 mPa·s; viscosity (373.15 K, 100 kPa): 8.46 ± 0.4 mPa·s; viscosity (373.15 K, 101.33 kPa): 8.42 ± 0.4 mPa·s and 8.43 ± 0.4 mPa·s; viscosity (373.15 K, 1000 kPa): 8.56 ± 0.41 mPa·s; viscosity (373.15 K, 5000 kPa): 9.04 ± 0.43 mPa·s; viscosity (373.15 K, 10000 kPa): 9.66 ± 0.46 mPa·s; viscosity (373.15 K, 20000 kPa): 11 ± 0.5 mPa·s; viscosity (373.15 K, 30000 kPa): 12.4 ± 0.6 mPa·s; viscosity (373.15 K, 40000 kPa): 14 ± 0.7 mPa·s; viscosity (373.15 K, 50000 kPa): 15.7 ± 0.8 mPa·s; viscosity (373.15 K, 60000 kPa): 17.5 ± 0.8 mPa·s

What does the source list for `CCCCC(=O)OCC(COCC(COC(=O)CCCC)(COC(=O)CCCC)COC(=O)CCCC)(COC(=O)CCCC)COC(=O)CCCC`?
viscosity (283.15 K, 101.33 kPa): 259 ± 18 mPa·s and 257.9 ± 18 mPa·s; viscosity (288.15 K, 101.33 kPa): 189.2 ± 12 mPa·s and 188.5 ± 12 mPa·s; viscosity (293.15 K, 101.33 kPa): 141.2 ± 8 mPa·s and 140.8 ± 8 mPa·s; viscosity (298.15 K, 101.33 kPa): 107.6 ± 5.7 mPa·s and 107.3 ± 5.7 mPa·s; viscosity (303.15 K, 100 kPa): 85.9 ± 4.3 mPa·s; viscosity (303.15 K, 101.33 kPa): 83.52 ± 4.2 mPa·s and 83.31 ± 4.1 mPa·s; viscosity (303.15 K, 1000 kPa): 87.2 ± 4.4 mPa·s; viscosity (303.15 K, 5000 kPa): 93.2 ± 4.7 mPa·s; viscosity (303.15 K, 10000 kPa): 101 ± 5 mPa·s; viscosity (303.15 K, 20000 kPa): 119 ± 6 mPa·s; viscosity (303.15 K, 30000 kPa): 139 ± 8 mPa·s; viscosity (303.15 K, 40000 kPa): 163 ± 10 mPa·s; viscosity (303.15 K, 50000 kPa): 189 ± 12 mPa·s; viscosity (303.15 K, 60000 kPa): 219 ± 14 mPa·s; viscosity (308.15 K, 101.33 kPa): 65.88 ± 3.2 mPa·s and 65.72 ± 3.1 mPa·s; viscosity (313.15 K, 100 kPa): 54.3 ± 2.6 mPa·s; viscosity (313.15 K, 101.33 kPa): 52.73 ± 2.5 mPa·s and 52.64 ± 2.5 mPa·s; viscosity (313.15 K, 1000 kPa): 55.1 ± 2.6 mPa·s; viscosity (313.15 K, 5000 kPa): 58.8 ± 2.8 mPa·s; viscosity (313.15 K, 10000 kPa): 63.6 ± 3 mPa·s; viscosity (313.15 K, 20000 kPa): 74.4 ± 3.6 mPa·s; viscosity (313.15 K, 30000 kPa): 86.6 ± 4.3 mPa·s; viscosity (313.15 K, 40000 kPa): 100 ± 5 mPa·s; viscosity (313.15 K, 50000 kPa): 116 ± 6 mPa·s; viscosity (313.15 K, 60000 kPa): 133 ± 7 mPa·s; viscosity (318.15 K, 101.33 kPa): 42.8 ± 2 mPa·s and 42.75 ± 2 mPa·s; viscosity (323.15 K, 101.33 kPa): 35.18 ± 1.7 mPa·s and 35.15 ± 1.7 mPa·s; viscosity (328.15 K, 101.33 kPa): 29.24 ± 1.4 mPa·s and 29.25 ± 1.4 mPa·s; viscosity (333.15 K, 100 kPa): 25 ± 1.2 mPa·s; viscosity (333.15 K, 101.33 kPa): 24.55 ± 1.2 mPa·s and 24.59 ± 1.2 mPa·s; viscosity (333.15 K, 1000 kPa): 25.4 ± 1.2 mPa·s; viscosity (333.15 K, 5000 kPa): 26.9 ± 1.3 mPa·s; viscosity (333.15 K, 10000 kPa): 29 ± 1.4 mPa·s; viscosity (333.15 K, 20000 kPa): 33.6 ± 1.6 mPa·s; viscosity (333.15 K, 30000 kPa): 38.6 ± 1.8 mPa·s; viscosity (333.15 K, 40000 kPa): 44.2 ± 2.1 mPa·s; viscosity (333.15 K, 50000 kPa): 50.3 ± 2.4 mPa·s; viscosity (333.15 K, 60000 kPa): 56.9 ± 2.7 mPa·s; viscosity (338.15 K, 101.33 kPa): 20.81 ± 0.99 mPa·s and 20.88 ± 1 mPa·s; viscosity (343.15 K, 101.33 kPa): 17.79 ± 0.85 mPa·s and 17.88 ± 0.85 mPa·s; viscosity (348.15 K, 101.33 kPa): 15.34 ± 0.73 mPa·s and 15.44 ± 0.74 mPa·s; viscosity (353.15 K, 100 kPa): 13.5 ± 0.7 mPa·s; viscosity (353.15 K, 101.33 kPa): 13.33 ± 0.64 mPa·s and 13.42 ± 0.64 mPa·s; viscosity (353.15 K, 1000 kPa): 13.6 ± 0.7 mPa·s; viscosity (353.15 K, 5000 kPa): 14.4 ± 0.7 mPa·s; viscosity (353.15 K, 10000 kPa): 15.45 ± 0.74 mPa·s; viscosity (353.15 K, 20000 kPa): 17.7 ± 0.8 mPa·s; viscosity (353.15 K, 30000 kPa): 20.1 ± 1 mPa·s; viscosity (353.15 K, 40000 kPa): 22.8 ± 1.1 mPa·s; viscosity (353.15 K, 50000 kPa): 25.7 ± 1.2 mPa·s; viscosity (353.15 K, 60000 kPa): 28.8 ± 1.4 mPa·s; viscosity (358.15 K, 101.33 kPa): 11.66 ± 0.56 mPa·s and 11.76 ± 0.56 mPa·s; viscosity (363.15 K, 101.33 kPa): 10.26 ± 0.49 mPa·s and 10.36 ± 0.49 mPa·s; viscosity (368.15 K, 101.33 kPa): 9.08 ± 0.43 mPa·s and 9.18 ± 0.44 mPa·s; viscosity (373.15 K, 100 kPa): 8.22 ± 0.39 mPa·s; viscosity (373.15 K, 101.33 kPa): 8.09 ± 0.39 mPa·s and 8.18 ± 0.39 mPa·s; viscosity (373.15 K, 1000 kPa): 8.32 ± 0.4 mPa·s; viscosity (373.15 K, 5000 kPa): 8.78 ± 0.42 mPa·s; viscosity (373.15 K, 10000 kPa): 9.38 ± 0.45 mPa·s; viscosity (373.15 K, 20000 kPa): 10.6 ± 0.5 mPa·s; viscosity (373.15 K, 30000 kPa): 12 ± 0.6 mPa·s; viscosity (373.15 K, 40000 kPa): 13.5 ± 0.6 mPa·s; viscosity (373.15 K, 50000 kPa): 15.2 ± 0.7 mPa·s; viscosity (373.15 K, 60000 kPa): 16.9 ± 0.8 mPa·s

Reference: the NIST ThermoML archive (doi:10.1021/je100057b)
